Results published in ChEMBL document CHEMBL5512658, “Development of benzimidazole-based compounds as novel capsid assembly modulators for the treatment of HBV infection” (Eur J Med Chem, 2024).
The source made the active and inactive calls. The rule behind the calls is not given here.

Experiments:
Core antigen = Core antigen (Hepatitis B virus, UniProt Q03732); assay: Inhibition of Hepatitis B virus core protein expressed in HBC cells derived from HEK293T cells assessed as reduction in HBcAg level incubated for 6 hrs by Nano-glo luciferase assay; format: cell-based
HepG2 = assay: Cytotoxicity against human HepG2 cells measured after 3 days by resazurin staining based analysis; format: functional; details: HepG2, 72 h, time 3 day
[1] = test system: Hepatitis B virus core protein; assay: Selectivity index, ratio of CC50 for human HepG2 cells to IC50 for Hepatitis B virus core protein expressed in HEK293T cells; format: toxicity, cell-based; details: read-out: Ratio CC50/IC50
Hepatitis B virus [2] = assay: Antiviral activity against HBV infected in human HePAD38 cells assessed as reduction HBV capsid level at 5 uM media replaced for every 2 to 3 days incubated for 7 days by Western blot analysis; format: functional, organism-based; details: time 7.0 day
Hepatitis B virus [3] = assay: Antiviral activity against HBV infected in human HePAD38 cells assessed as inhibition of HBV capsid assembly by measuring secretion of particles containing HBV DNA at 5 uM incubated for 7 days by Southern blot analysis; format: functional, organism-based; details: time 7.0 day
Hepatitis B virus [4] = assay: Antiviral activity against HBV infected in human HePAD38 cells assessed as reduction in intracellular core HBV DNA level media replaced for every 2 to 3 days incubated for 7 days by Western blot analysis; format: functional, organism-based

Core antigen, sequence (Q03732 whole entry): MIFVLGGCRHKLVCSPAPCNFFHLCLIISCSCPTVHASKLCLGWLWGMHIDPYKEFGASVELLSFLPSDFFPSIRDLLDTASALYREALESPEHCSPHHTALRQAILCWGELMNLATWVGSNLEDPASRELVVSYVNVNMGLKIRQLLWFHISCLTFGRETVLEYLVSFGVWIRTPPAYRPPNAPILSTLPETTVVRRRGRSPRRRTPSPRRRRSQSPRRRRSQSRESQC

| SMILES | IC50 (Core antigen; read-out: IC50) [µM] | CC50 (HepG2) [µM] | selectivity ratio [1] | Activity (Hepatitis B virus [2]) | Activity (Hepatitis B virus [3]) | EC50 (Hepatitis B virus [4]) [µM] | IC50 (Core antigen; hbc) |
| --- | --- | --- | --- | --- | --- | --- | --- |
| Cc1ccc(Sc2nc3ccccc3[nH]2)cc1 | 6.81 | 61 | 8.96 |  |  |  |  |
| CCOC(=O)n1c(Cc2ccc(OC)cc2)nc2ccccc21 | 2.18 | 44.2 | 20.3 | Active | Active |  |  |
| COc1ccc(Cc2nc3ccccc3n2CCCOC(C)=O)cc1 | 14 | > 100 | > 7.15 |  | Active |  |  |
| COc1ccc(Cc2nc3ccccc3n2C(C)C)cc1 | 41.5 | 37.1 | 0.96 |  |  |  |  |
| COc1ccc(Cc2nc3ccccc3n2CC(O)CO)cc1 (configuration not stated) | 3.07 | > 100 | > 32.6 |  |  |  |  |
| COc1ccc(Cc2nc3ccccc3n2C[C@@H](O)COc2ccccc2)cc1 | 2.41 | 9.72 | 4.03 |  |  |  |  |
| CCc1ccc(Sc2nc3ccccc3[nH]2)cc1 | 3.93 | 17.2 | 4.37 |  |  |  |  |
| COc1ccc(Cc2nc3ccccc3n2CCCNc2ccccc2)cc1 | 1.26 | 12.3 | 9.73 |  |  |  |  |
| CCn1c(Cc2ccc(OC)cc2)nc2ccccc21 | 4.51 | 29.5 | 6.55 |  |  |  |  |
| OCCn1c(Sc2ccc(Cl)c(Cl)c2)nc2ccccc21 | 7 | > 100 | > 14.3 |  |  |  |  |
| CCCCCn1c(Cc2ccc(OC)cc2)nc2ccccc21 | 7.63 | 46.5 | 6.1 |  |  |  |  |
| OCCn1c(Sc2ccc(F)cc2)nc2ccccc21 | 22.2 | 84.7 | 3.82 |  |  |  |  |
| Clc1ccc(Sc2nc3ccccc3[nH]2)cc1 | 2.94 | 13.7 | 4.65 |  |  |  |  |
| COc1ccc(Nc2nc3ccccc3[nH]2)cc1 | 6.13 | 65.6 | 10.7 |  |  |  |  |
| COc1ccc(Cc2nc3ccccc3n2CCCCCCO)cc1 | 3.36 | 30.3 | 9.02 | Active |  |  |  |
| COc1ccc(Cc2nc3ccccc3n2C2CCC2)cc1 | 27.2 | 89.6 | 3.29 |  |  |  |  |
| Fc1cc(F)cc(Sc2nc3ccccc3[nH]2)c1 | 19.7 | > 100 | > 5.07 |  |  |  |  |
| COc1ccc(Cc2nc3ccccc3n2CC(=O)COc2ccccc2)cc1 | 3.67 | 10.2 | 2.79 |  |  |  |  |
| Fc1ccc(Sc2nc3ccccc3[nH]2)cc1 | 12 | 13.3 | 1.11 |  |  |  |  |
| CCOC(=O)Cn1c(Cc2ccc(OC)cc2)nc2ccccc21 | 9.41 | 22.1 | 2.35 |  |  |  |  |
| COc1ccc(Cc2nc3ccccc3n2CC(O)COc2ccccc2)cc1 (configuration not stated) | 1.99 | 12.3 | 6.18 |  |  | 0.07 |  |
| COc1ccc(S(=O)(=O)c2nc3ccccc3[nH]2)cc1 | 26.9 | 65.2 | 2.42 |  |  |  |  |
| COc1ccc(Cc2nc3ccccc3n2CCCCO)cc1 | 2.45 | 34.4 | 14.1 | Active | Active |  |  |
| COc1ccc(Sc2nc3ccccc3n2C)cc1 | 5.68 | 25.8 | 4.54 |  |  |  |  |
| COc1ccc(C2(c3nc4ccccc4[nH]3)CC2)cc1 | 21.8 | > 100 | > 4.58 |  |  |  |  |
| COc1ccc(Cc2nc3ccccc3n2C)cc1 | 4.85 | 22.1 | 4.55 | Active | Active |  |  |

| SMILES | IC50 (Core antigen; read-out: IC50) [µM] | CC50 (HepG2) [µM] | selectivity ratio [1] | Activity (Hepatitis B virus [2]) | Activity (Hepatitis B virus [3]) | EC50 (Hepatitis B virus [4]) [µM] | IC50 (Core antigen; hbc) |
| --- | --- | --- | --- | --- | --- | --- | --- |
| OCCn1c(Sc2ccc(Cl)cc2)nc2ccccc21 | 3.6 | 50.7 | 14.1 |  |  | 6.37 |  |
| Clc1ccc(Sc2nc3ccccc3[nH]2)cc1Cl | 11.1 | > 100 | > 9.03 |  |  |  |  |
| COc1ccc(Cc2nc3ccccc3n2CCCOc2ccccc2)cc1 | 1.25 | 12.7 | 10.2 |  |  |  |  |
| Fc1cccc(Sc2nc3ccccc3[nH]2)c1 |  | > 100 |  |  |  |  | Not Active |
| Brc1ccc(Sc2nc3ccccc3[nH]2)cc1 | 1.8 | 13.9 | 7.73 |  |  |  |  |
| CCCCn1c(Cc2ccc(OC)cc2)nc2ccccc21 | 6.48 | > 100 | > 15.4 |  |  |  |  |
| COc1ccc(Oc2nc3ccccc3[nH]2)cc1 |  | > 100 |  |  |  |  | Not Active |
| COc1ccc(Cc2nc3ccccc3n2CCCBr)cc1 | 7.85 | 26.2 | 3.34 |  |  |  |  |
| COc1ccc(Cc2nc3ccccc3n2CCCCc2ccccc2)cc1 | 27.7 | 44.6 | 1.61 |  |  |  |  |
| OCCn1c(Sc2cccc(F)c2)nc2ccccc21 | 49.3 | > 100 | > 2.03 |  |  |  |  |
| COCC(O)Cn1c(Cc2ccc(OC)cc2)nc2ccccc21 (configuration not stated) | 3.32 | > 100 | > 30.1 |  |  |  |  |
| COCCCn1c(Cc2ccc(OC)cc2)nc2ccccc21 | 9.65 | > 100 | > 10.4 | Active | Active |  |  |
| COc1ccc(CCc2nc3ccccc3[nH]2)cc1 | 34.3 | > 100 | > 2.91 | Active | Active |  |  |
| Clc1cccc(Sc2nc3ccccc3[nH]2)c1 | 26.5 | > 100 | > 3.77 |  |  |  |  |
| COc1ccc(Cc2nc3ccccc3n2CCO)cc1 | 2.37 | > 100 | > 42.2 | Active | Active |  |  |
| CCCn1c(Cc2ccc(OC)cc2)nc2ccccc21 | 11.4 | > 100 | > 8.79 |  |  |  |  |
| COCC(Cn1c(Cc2ccc(OC)cc2)nc2ccccc21)OC (configuration not stated) | 19.8 | > 100 | > 5.06 |  |  |  |  |
| COc1ccc(Cc2nc3ccccc3o2)cc1 | 36.3 | > 100 | > 2.76 |  |  |  |  |
| COc1ccc(Cc2nc3ccccc3n2C[C@H](O)COc2ccccc2)cc1 | 2.46 | 15.2 | 6.18 |  |  |  |  |
| COc1ccc([S+]([O-])c2nc3ccccc3[nH]2)cc1 (configuration not stated) | 36.5 | 34 | 0.93 |  |  |  |  |
| COc1ccc(Cc2nc3ccccc3n2CCCO)cc1 | 4.17 | > 100 | > 24 |  | Active |  |  |
| CCc1ccc(Sc2nc3ccccc3n2CCO)cc1 | 4.5 | 82.8 | 18.4 |  |  |  |  |
| COc1ccc(CCCc2nc3ccccc3[nH]2)cc1 | 22.8 | 47 | 2.06 | Active | Active |  |  |
| COc1ccc(Sc2nc3ccccc3n2C(C)=O)cc1 | 12 | > 100 | > 8.37 |  |  |  |  |
| COc1ccc(Cc2nc3ccccc3n2CCCOc2cccnc2)cc1 | 1.21 | 13.4 | 11.1 |  |  |  |  |
| COc1ccc(Cc2nc3ccccc3n2-c2ccccc2)cc1 | 52.9 | 14.2 |  |  |  |  |  |
